# Assay results taken from patent US9700539B2, “Therapeutic application of (Boc)2-creatine” (UNIVERSITA' DEGLI STUDI DI GENOVA, priority 2013, dated 2017).
# Assays:
# creatine kinase enzyme [1] = conditions: literature; cited from earlier work
# creatine kinase enzyme [2] = experiment: Creatine kinase activity by the coupled enzymatic method (pyruvate kinase/lactate dehydrogenase, NADH at 340 nm); type: biochemical; conditions: 2 mM creatine
# Method: The activity of the creatine kinase enzyme was measured by the enzymatic coupling method (Bergmeyer 1974). In this method, the ATP hydrolysis is coupled with the NADH oxidation, which is monitored, by means of a spectrophotometer, by the decrease in absorbance at 340 nm (ε340=6.22 mM^−1 cm^−1).
# The dosage of the creatine kinase was carried out with the spectrophotometer at 340 nm, following the oxidation of the pyridine coenzyme NADH, which is expressed as a decrease in the absorbance. To be able to carry out the dosage, the reaction of the creatine kinase was combined with two other enzymatic reactions catalyzed respectively by the pyruvate kinase and by the lactate dehydrogenase (Bergmeyer 1974). This method, defined as the coupled method, is necessary because both the substrata and the products of the creatine kinase are not directly visible to the spectrophotometer. In particular, the dosage solution contained the following compounds: 100 mM Tris HCl, pH 7.5, 2 mM MgCl2, 75 mM KCl, 2 mM ATP, 0.5 mM phosphoenolpyruvate, 0.16 mM NADH, 10 IU of pyruvate kinase and of lactate dehydrogenase, in a final volume of 1 ml. The reaction begins by the addition of 2 mM of creatine. The dosage is carried out continuously, i.e. the enzyme activity is followed in real time during the development of the reaction. The dosage trend is monitored by a register connected to the spectrophotometer. The reactions take place in the cuvette, as illustrated in FIG. 1.
# To verify the inhibiting effect of (Boc)2-creatine, concentrations between 0.25 and 2 mM were added to the dosage solution, before the addition of the creatine.
# To identify the type of inhibition, the maximum kinetic speed (Vmax) and the Michaelis Menten constant (Km) were measured. To be able to carry out the experiment, for each concentration of (Boc)2-creatine, the dosage was carried out in the presence of different substratum concentrations (creatine). The data were analyzed with the Lineweaver-Burk double-reciprocal plot.
# [3] = test system: slices of mouse hippocampus; experiment: Incubation of mouse hippocampus slices with (Boc)2-creatine; type: cell-based; conditions: 2 mM, 3 hours at 36° C.
# From the text: Of course, high concentrations of (Boc)2-creatine will have a cytotoxic effect. […] Since tumor development is due to an uncontrolled cellular progression, a molecule which can control the main source of cell energy gives a valid means of controlling cell proliferation.
# [4] = test system: tumor cell lines that express a high level of creatine kinase; conditions: literature; cited from earlier work
compound,measurement,setting,value
CCCCCC(CCCC)=C([Te]c1ccccc1)C(=O)c1ccccc1 [3-butyl-1-phenyl-2-(phenyltelluro)oct-en-1-one],type of inhibition of creatine kinase,creatine kinase enzyme [1],competitive inhibitor
CN(CC(=O)O)C(=NC(=O)OC(C)(C)C)NC(=O)OC(C)(C)C [(Boc)2-creatine],inhibition of the creatine kinase,creatine kinase enzyme [2]; 0.25 mM (Boc)2-creatine,21%
same,inhibition of the creatine kinase,creatine kinase enzyme [2]; 0.5 mM (Boc)2-creatine,39%
same,inhibition of the creatine kinase,creatine kinase enzyme [2]; 0.75 mM (Boc)2-creatine,75%
same,maximum inhibition of the creatine kinase,creatine kinase enzyme [2]; 1 mM (Boc)2-creatine,95%
same,cytotoxic effect on hippocampus slices (vital signs),[3],show no vital signs
NC(=O)CI [Iodoacetamide],type of inhibition of creatine kinase,creatine kinase enzyme [1],complete and irreversible inhibition
"N=C1NCCN1CC(=O)O [cyclocreatine, 1-carboxymethyl-2-iminoimidazolidine]",inhibition of tumor cell lines,[4],suitable for inhibiting tumor cell lines that express a high level of creatine kinase
